In patent US20110245213A1, “TREATMENT” (PROVEXIS NATURAL PRODUCTS LIMITED, priority 2008, published 2011):
Several values for one entry are separate records, joined by “and”; a condition that tells them apart may be missing. Identical values can stand only once.

What was measured:
bovine insulin = biological target: T1, bovine insulin (Bos taurus, UniProt P01317); assay: Incubation of peptides with isothiocyanates, LC-MS/MS: insulin; type: binding; details: for conjugate of insulin peptide and ITC: PBS pH 7.4, 37° C., 0.5 to 24 hours
T1 construct: m/z 325.2 corresponds to Phe-SF, the N-terminal amino acid of insulin B chain; m/z 235.0 corresponds to Gly-SF, the N-terminal amino acid of insulin A chain; purchased Sigma-Aldrich
Description: (§1) Incubations of SF or IB with bovine insulin (P01308, Sigma-Aldrich), recombinant human epidermal growth factor (EGF, P01133, R&D Systems, http://www.rndsystems.com/) and recombinant human transforming growth factor beta 1 (TGFβ1, P01137, R&D Systems) were performed in sodium phosphate-buffered saline solution (pH 7.4) or human blood plasma at 37° C. for 0.5-24 h. Plasma was pre-treated by ultrafiltration to remove high molecular weight proteins (Microcon Ultracel YM-30 filter, MWCO 30,000). Samples were either analyzed directly by LC-MS/MS or by LC-MS/MS analysis of tryptic digests of gel electrophoresis bands.
(§2) The LC system used was a Shimadzu series 10AD VP (Shimadzu, http://www.shimadzu.com/). The column was an ACE 300 C18, 150×2.1 mm (5 μm particle size) used at 40° C. Mobile phase A was 0.1% formic acid in water, mobile phase B, 0.1% formic acid in acetonitrile and the flow rate was 0.25 ml/min. A linear gradient was used from 25% B to 35% B over 0 to 5 min, then a further gradient from 35% B to 99% B over 6 min followed by 99% B for 4 min. The column was re-equilibrated for a total of 3 min. The injection volume was between 5-20 μl. All MS experiments were conducted on a 4000 QTRAP hybrid triple-quadrupole linear ion trap mass spectrometer using Analyst version 1.4.1 software (Applied Biosystems, http://www.appliedbiosystems.com/) equipped with a TurboIon source used in positive ion electrospray mode. The probe capillary voltage was optimized at 4200 V, desolvation temperature set to 400° C., curtain gas, nebulizing and turbo spray gas were set to 40, 10 and 20, respectively (arbitrary values). […] The peak-width was set on Q1 and Q3 at 1.0 Th (measured at half height) for all MS and MS/MS experiments. Spectra were obtained over the range m/z 800-2000 with scan times of 1-2 sec. […]

[1] = biological target: T2, recombinant human transforming growth factor beta 1 (TGFβ1) (Homo sapiens, UniProt P01137); assay: Incubation of peptides with isothiocyanates, LC-MS/MS: TGFβ1; type: binding; details: for conjugate of TGFβ1 peptide and ITC: PBS pH 7.4, 37° C., 0.5 to 24 hours
T2 construct: TGFβ1 was robustly identified in bands of 25 kDa corresponding to the active dimer; purchased R&D Systems
Description: as §1
1 μg aliquots of the TGFβ1 protein, supplied with bovine serum albumin as carrier, were incubated with either DMSO or 1.2 μmoles of SF for 30 minutes at 37° C. and run onto denaturing 4-12% Bis-Tris NuPAGE gels (Invitrogen, http://www.invitrogen.com). Bands were excised and digested with trypsin (Promega, http://www.promega.com/) after reduction with dithiothreitol (DTT) and alklyation with iodoacetamide (Sigma-Aldrich, http://www.sigmaaldrich.com/). Extracted peptides were lyophilized and re-dissolved in 1% acetonitrile, 0.1% formic acid for analysis by mass spectrometry. LC-MS/MS analysis was performed using a LTQ mass spectrometer (Thermo Electron Corporation, http://www.thermo.com/) and a nanoflow-HPLC system (Surveyor, Thermo Electron). Peptides were applied to a precolumn (C18 pepmap100, LC Packings, http://www.lcpackings.com/) connected to a self-packed C18 8-cm analytical column (BioBasic resin ThermoElectron; Picotip 75 μm id, 15 μm tip, New Objective, http://www.newobjective.com/). Peptides were eluted by a gradient of 2 to 30% acetonitrile in 0.1% formic acid over 40 min at a flow rate of approximately 250 nL min^−1. Data-dependent acquisition of MS/MS consisted of selection of the five most abundant ions in each cycle: MS mass-to-charge ratio (m/z) 300 to 2000, minimum signal 1000, collision energy 25, 5 repeat hits, 300 sec exclusion.

[2] = biological target: T3, recombinant human epidermal growth factor (EGF) (Homo sapiens, UniProt P01133); assay: Incubation of peptides with isothiocyanates, LC-MS/MS: EGF; type: binding; details: for conjugate of EGF peptide and ITC: PBS pH 7.4, 37° C., 0.5 to 24 hours
T3 construct: addition of SF to the N-terminal asparagines residue (m/z 309) of EGF; purchased R&D Systems
Description: as §1, §2

[3] = system: Smad2 phosphorylation in PC3 cells; assay: Quantification of pSmad2 protein in PC3 cells; type: cell-based; details: for PSmad2 / PSmad2 Normalised to GAPDH: PC3 cells
Description: FIG. 14 represents (a) a photograph of a gel; and (b) the data quantified in a bar chart which corresponds to the data presented in Table 6 as discussed in Example 2 (Expt 2). The data illustrates how an ITC modulates Smad activity. The experiment concerned pre-incubation of TGFβ1 with and without sulforaphane (SF) for 30 minutes before treating PC3 cells for 1 h and then measuring Smad2 phosphorylation (i.e. a function of TGFβ1 activity).
TGFβ1 acts an anti-inflammatory cytokine. It induces phosphorylation of smad proteins that translocate to the nucleus and induce gene expression associated with anti-inflammatory activity. […] Therefore ITCs act as anti-inflammatory mediators.

[4] = system: EGF receptor phosphorylation in BPH1 cells (hyperplastic prostate cells); details: BPH cells
[5] = system: TGFβ1/Smad mediated transcription; assay: Luciferase reporter gene assay in NIH 3T3 cells with CAGA12-luc plasmid; type: cell-based
Description: NIH 3T3 cells stably transfected with a CAGA12-luc plasmid, which responds to Smad activation (Dennler et al. (1998) Embo J 17: 3091-3100), were cultured in DMEM supplemented with 10% fetal calf serum (FCS), 1% penicillin, 1% streptomycin, 1% L-glutamine and 0.4 mg/ml geneticin. Cells were seeded into complete growth medium in a six-well tissue culture dish for 24 h, after which the medium was replaced with low serum medium (0.5% FCS) containing one of three treatments:
(1) TGFβ1 (to achieve a final concentration of 2 ng ml^−1) in PBS buffer,
(2) (TGFβ1+10 mM DTT in PBS buffer
(3) TGFβ1+2 μM SF in PBS buffer.
To simulate SF pharmacokinetics, all test samples were incubated at 37° C. for 30 minutes prior to dialysis, performed in PBS buffer for 4 hours using Slide-A-Lyzer Dialysis Cassettes MWCO 3.5K (PIERCE, http://www.piercenet.com/). Dialysis reduced SF concentration to 34 nM. As additional controls, cells were treated with PBS without TGFβ1 and PBS with SF (34 nM). The luciferase activity was determined 16 h following treatment using the Luciferase Reporter Gene assay (Roche Applied Science, http://www.roche.com/) in a Perkin Elmer Wallac Victor 2 1420 multilabel counter plate reader (http://las.perkinelmer.com/). Briefly, cells were washed twice with PBS and lysed in cell lysis buffer supplied with the assay. Chemiluminescence was immediately quantified following the addition of luciferase assay substrate. Luciferase values were normalized to protein concentration quantified using the BCA assay (Sigma-Aldrich, http://www.sigmaaldrich.com/). The experiment was repeated four times, with three replicates of each treatment per experiment. Statistical analysis was performed using 1-way ANOVA with the statistical software, R (http://www.R-project.org).

[6] = following broccoli consumption, cited from earlier work
[7] = system: Smad2 phosphorylation in A549 cells; assay: Quantification of pSmad2 protein in A549 cells; type: cell-based; details: TGFβ1 alone
[8] = TGFβ1 + 2 μM SF, pre-incubated 30 minutes, cells treated 1 h
[9] = TGFβ1 + 10 μM SF, pre-incubated 30 minutes, cells treated 1 h

T1 sequence (P01317 25-54 limits assumed): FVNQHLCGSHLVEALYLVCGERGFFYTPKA
T1 sequence (P01317 85-105 limits assumed): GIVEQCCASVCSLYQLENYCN
T2 sequence (P01137 279-390 limits assumed): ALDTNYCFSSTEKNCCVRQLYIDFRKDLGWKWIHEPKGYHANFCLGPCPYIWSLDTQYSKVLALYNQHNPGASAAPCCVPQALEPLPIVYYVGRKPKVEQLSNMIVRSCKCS
T3 sequence (P01133 971-1023 limits assumed): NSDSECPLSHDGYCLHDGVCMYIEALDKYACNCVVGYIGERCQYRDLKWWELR

**Q.** What does the source list for `C[S+]([O-])CCCN=C=S` (stereo not shown) [IB, iberin]?
**A.** conjugate of insulin peptide and ITC (bovine insulin): formation of a covalently bound conjugate; conjugate of TGFβ1 peptide and ITC [1]: formation of a covalently bound conjugate; conjugate of EGF peptide and ITC [2]: formation of a covalently bound conjugate

**Q.** What does the source list for `C[S+]([O-])CCCCN=C=S` (stereo not shown) [SF, sulforaphane]?
**A.** expression of pSmad2 compared to TGFβ1 alone ([3]; PC3 cell line, co-exposure to TGFβ1 and SF): enhances expression of psamd2; PSmad2 [3, 8]: 8179 counts/mm^2 and 12578 counts/mm^2 and 11881 counts/mm^2; PSmad2 Normalised to GAPDH [3, 8]: 0.1772 and 0.2807 and 0.3091; PSmad2 [3, 9]: 13595 counts/mm^2 and 16870 counts/mm^2 and 15049 counts/mm^2; PSmad2 Normalised to GAPDH [3, 9]: 0.2602 and 0.2810 and 0.3104; conjugate of insulin peptide and ITC (bovine insulin): formation of a covalently bound conjugate; insulin-ITC conjugates (N-terminal Gly and Phe) by LC-MS/MS (bovine insulin; human plasma depleted of high MW proteins): appearance of two insulin-SF conjugates; reduction in EGF receptor phosphorylation ([4]; 10 μmol/L sulforaphane, 10 mg/L EGF, 10 minute timecourse): approximately threefold; amount of phosphorylated EGF receptor compared to EGF alone ([4]; pre-incubation of EGF with ITC): reduces the amount of phosphorylated receptor; Smad-mediated transcription (luciferase) compared to TGFβ1 alone ([5]; TGFβ1 pre-incubated with 2 μM SF for 30 minutes followed by dialysis (SF 34 nM)): increase in Smad-mediated transcription; Smad-mediated transcription (luciferase) ([5]; residual SF (34 nM) alone, without TGFβ1): did not result in enhanced transcription; modification of TGFβ1 (tryptic N-terminal peptide, LC-MS/MS) ([1]; 1 μg TGFβ1 with 1.2 μmoles of SF, 30 minutes at 37° C., SDS-PAGE, trypsin): N-terminal modification; conjugate of TGFβ1 peptide and ITC [1]: formation of a covalently bound conjugate; conjugate of EGF peptide and ITC [2]: formation of a covalently bound conjugate; EGF conjugates (N-terminal asparagine) by LC-MS/MS ([2]; human plasma): formation of EGF conjugates with SF; SF in the plasma that occurs as free SF, as opposed to thiol conjugates [6]: 45%; peak concentration of SF and its thiol conjugates ([6]; plasma): less than 2 μM

**Q.** Which results are given for “TGFβ1: recombinant human transforming growth factor beta 1 (P01137, R&D Systems)”?
**A.** PSmad2 ([3]; TGFβ1 alone, 1 h): 6154 counts/mm^2 and 10910 counts/mm^2 and 7089 counts/mm^2; PSmad2 Normalised to GAPDH ([3]; TGFβ1 alone, 1 h): 0.1039 and 0.1722 and 0.1398; luciferase activity ([5]; TGFβ1 alone, 2 ng ml^−1): induced luciferase activity; PSmad2 [7]: 1570 counts/mm^2; PSmad2 Normalised to GAPDH [7]: 0.1320
